How the values were obtained:
Assay type in all cases: in vivo
[1] = test system: blackgrass (Alopecurus myosuroides); experiment: Test C preemergence, blackgrass; conditions: 0 is no effect, 100 is complete control
Excerpt: (§1) Seeds of plant species selected from blackgrass (Alopecurus myosuroides), corn (Zea mays), foxtail, giant (giant foxtail, Setaria faberi), goosegrass (Eleusine indica), kochia (Bassia scoparia), oat, wild (wild oat, Avena fatua), pigweed, palmer (palmer amaranth, Amaranthus palmeri), ragweed (common ragweed, Ambrosia artemisiifolia), ryegrass, Italian (Italian ryegrass, Lolium multiflorum), soybean (Glycine max) and wheat (Triticum aestivum) were planted into a blend of loam soil and sand and treated preemergence with a directed soil spray using test chemicals formulated in a non-phytotoxic solvent mixture which included a surfactant.
(§2) At the same time, plants selected from these crop and weed species and also galium (catchweed bedstraw, Galium aparine) and horseweed (Erigeron canadensis) were planted in pots containing the same blend of loam soil and sand and treated with postemergence applications of test chemicals formulated in the same manner. Plants ranged in height from 2 to 10 cm and were in the one- to two-leaf stage for the postemergence treatment. Treated plants and untreated controls were maintained in a greenhouse for 10 or 12 days, after which time all treated plants were compared to untreated controls and visually evaluated for injury. Plant response ratings, summarized in Table A, are based on a 0 to 100 scale where 0 is no effect and 100 is complete control. A dash (-) response means no test result.

corn (Zea mays) [2] = experiment: Test C preemergence, corn; conditions: 0 is no effect, 100 is complete control
Excerpt: as §1, §2

[3] = test system: foxtail, giant (giant foxtail, Setaria faberi); experiment: Test C preemergence, giant foxtail; conditions: 0 is no effect, 100 is complete control
Excerpt: as §1, §2

[4] = test system: goosegrass (Eleusine indica); experiment: Test C preemergence, goosegrass; conditions: 0 is no effect, 100 is complete control
Excerpt: as §1, §2

kochia (Bassia scoparia) [5] = experiment: Test C preemergence, kochia; conditions: 0 is no effect, 100 is complete control
Excerpt: as §1, §2

[6] = test system: oat, wild (wild oat, Avena fatua); experiment: Test C preemergence, wild oat; conditions: 0 is no effect, 100 is complete control
Excerpt: as §1, §2

[7] = test system: pigweed, palmer (palmer amaranth, Amaranthus palmeri); experiment: Test C preemergence, palmer amaranth; conditions: 0 is no effect, 100 is complete control
Excerpt: as §1, §2

[8] = test system: ragweed (common ragweed, Ambrosia artemisiifolia); experiment: Test C preemergence, ragweed; conditions: 0 is no effect, 100 is complete control
Excerpt: as §1, §2

[9] = test system: ryegrass, Italian (Italian ryegrass, Lolium multiflorum); experiment: Test C preemergence, Italian ryegrass; conditions: 0 is no effect, 100 is complete control
Excerpt: as §1, §2

soybean (Glycine max) [10] = experiment: Test C preemergence, soybean; conditions: 0 is no effect, 100 is complete control
Excerpt: as §1, §2

[11] = test system: wheat (Triticum aestivum); experiment: Test C preemergence, wheat; conditions: 0 is no effect, 100 is complete control
Excerpt: as §1, §2

[12] = test system: blackgrass (Alopecurus myosuroides); experiment: Test C postemergence, blackgrass; conditions: 31 g ai/ha Postemergence; visual injury, 0 to 100 scale (0 no effect, 100 complete control)
Excerpt: as §1, §2

corn (Zea mays) [13] = experiment: Test C postemergence, corn
Excerpt: as §1, §2

[14] = test system: foxtail, giant (giant foxtail, Setaria faberi); experiment: Test C postemergence, giant foxtail
Excerpt: as §1, §2

[15] = test system: goosegrass (Eleusine indica); experiment: Test C postemergence, goosegrass
Excerpt: as §1, §2

kochia (Bassia scoparia) [16] = experiment: Test C postemergence, kochia
Excerpt: as §1, §2

[17] = test system: oat, wild (wild oat, Avena fatua); experiment: Test C postemergence, wild oat
Excerpt: as §1, §2

[18] = test system: pigweed, palmer (palmer amaranth, Amaranthus palmeri); experiment: Test C postemergence, palmer amaranth; conditions: visual injury, 0 to 100 scale (0 no effect, 100 complete control)
Excerpt: as §1, §2

[19] = test system: ragweed (common ragweed, Ambrosia artemisiifolia); experiment: Test C postemergence, ragweed; conditions: visual injury, 0 to 100 scale (0 no effect, 100 complete control)
Excerpt: as §1, §2

[20] = test system: ryegrass, Italian (Italian ryegrass, Lolium multiflorum); experiment: Test C postemergence, Italian ryegrass; conditions: visual injury, 0 to 100 scale (0 no effect, 100 complete control)
Excerpt: as §1, §2

soybean (Glycine max) [21] = experiment: Test C postemergence, soybean; conditions: visual injury, 0 to 100 scale (0 no effect, 100 complete control)
Excerpt: as §1, §2

[22] = test system: wheat (Triticum aestivum); experiment: Test C postemergence, wheat; conditions: visual injury, 0 to 100 scale (0 no effect, 100 complete control)
Excerpt: as §1, §2

[23] = test system: galium (catchweed bedstraw, Galium aparine); experiment: Test C postemergence, galium
Excerpt: as §1, §2

[24] = test system: barnyardgrass (Echinochloa crusgalli); experiment: Test D flooded paddy test, barnyardgrass; design: key: 0 = no effect, 100 = complete control; conditions: 250 g ai/ha, Flood; applied to paddy water at 2-leaf stage; visual rating after 13 days; scale 0 (no effect) to 100 (complete control)
Procedure: (§3) Plant species in the flooded paddy test selected from barnyardgrass (Echinochloa crusgalli), ducksalad (Heteranthera limosa), rice (Oryza sativa), and sedge, umbrella (small-flower umbrella sedge, Cyperus difformis) were grown to the 2-leaf stage for testing. At time of treatment, test pots were flooded to 3 cm above the soil surface, treated by application of test compounds directly to the paddy water, and then maintained at that water depth for the duration of the test. Treated plants and controls were maintained in a greenhouse for 13 days, after which time all species were compared to controls and visually evaluated. Plant response ratings, summarized in Table B, are based on a scale of 0 to 100 where 0 is no effect and 100 is complete control. A dash (-) response means no test result.

[25] = test system: ducksalad (Heteranthera limosa); experiment: Test D flooded paddy test, ducksalad; design: key: 0 = no effect, 100 = complete control; conditions: 250 g ai/ha, Flood; applied to paddy water at 2-leaf stage; visual rating after 13 days; scale 0 (no effect) to 100 (complete control)
Procedure: as §3

rice (Oryza sativa) = experiment: Test D flooded paddy test, rice; design: key: 0 = no effect, 100 = complete control; conditions: 250 g ai/ha, Flood; applied to paddy water at 2-leaf stage; visual rating after 13 days; scale 0 (no effect) to 100 (complete control)
Procedure: as §3

[26] = test system: sedge, umbrella (small-flower umbrella sedge, Cyperus difformis); experiment: Test D flooded paddy test, umbrella sedge; design: key: 0 = no effect, 100 = complete control; conditions: 250 g ai/ha, Flood; applied to paddy water at 2-leaf stage; visual rating after 13 days; scale 0 (no effect) to 100 (complete control)
Procedure: as §3

[27] = test system: blackgrass (Alopecurus myosuroides); experiment: Test C postemergence, blackgrass; conditions: 125 g ai/ha Postemergence; 0 is no effect, 100 is complete control
[28] = 31 g ai/ha Postemergence, visual injury, 0 to 100 scale (0 no effect, 100 complete control)
[29] = 125 g ai/ha Postemergence, 0 is no effect, 100 is complete control

## Cc1cc(C)c(N2CCC(OC3CC3)C2=O)cc1NS(=O)(=O)C(F)(F)F (single isomer, unassigned) [Compound 29]
[1]; 31 g ai/ha Preemergence
  Plant response rating (0 to 100 scale), Blackgrass: 90
[1]; 125 g ai/ha Preemergence
  Plant response rating (0 to 100 scale), Blackgrass: 90
Corn (Zea mays) [2]; 31 g ai/ha Preemergence
  Plant response rating (0 to 100 scale), Corn: 80
Corn (Zea mays) [2]; 125 g ai/ha Preemergence
  Plant response rating (0 to 100 scale), Corn: 90
[3]; 31 g ai/ha Preemergence
  Plant response rating (0 to 100 scale), Foxtail, Giant: 90
[3]; 125 g ai/ha Preemergence
  Plant response rating (0 to 100 scale), Foxtail, Giant: 100
[4]; 31 g ai/ha Preemergence
  Plant response rating (0 to 100 scale), Goosegrass: 100
[4]; 125 g ai/ha Preemergence
  Plant response rating (0 to 100 scale), Goosegrass: 100
Kochia (Bassia scoparia) [5]; 31 g ai/ha Preemergence
  Plant response rating (0 to 100 scale), Kochia: 90
Kochia (Bassia scoparia) [5]; 125 g ai/ha Preemergence
  Plant response rating (0 to 100 scale), Kochia: 100
[6]; 31 g ai/ha Preemergence
  Plant response rating (0 to 100 scale), Oat, Wild: 90
[6]; 125 g ai/ha Preemergence
  Plant response rating (0 to 100 scale), Oat, Wild: 90
[7]; 31 g ai/ha Preemergence
  Plant response rating (0 to 100 scale), Pigweed, Palmer: 100
[7]; 125 g ai/ha Preemergence
  Plant response rating (0 to 100 scale), Pigweed, Palmer: 100
[8]; 31 g ai/ha Preemergence
  Plant response rating (0 to 100 scale), Ragweed: 80
[8]; 125 g ai/ha Preemergence
  Plant response rating (0 to 100 scale), Ragweed: 90
[9]; 31 g ai/ha Preemergence
  Plant response rating (0 to 100 scale), Ryegrass, Italian: 100
[9]; 125 g ai/ha Preemergence
  Plant response rating (0 to 100 scale), Ryegrass, Italian: 100
Soybean (Glycine max) [10]; 31 g ai/ha Preemergence
  Plant response rating (0 to 100 scale), Soybean: 90
Soybean (Glycine max) [10]; 125 g ai/ha Preemergence
  Plant response rating (0 to 100 scale), Soybean: 100
[11]; 31 g ai/ha Preemergence
  Plant response rating (0 to 100 scale), Wheat: 90
[11]; 125 g ai/ha Preemergence
  Plant response rating (0 to 100 scale), Wheat: 100
[12]
  Blackgrass plant response rating: 60
Corn (Zea mays) [13]; [28]
  Corn plant response rating: 80
Corn (Zea mays) [13]; [29]
  Plant response rating (0 to 100 scale), Corn: 90
[14]; [28]
  Foxtail, Giant plant response rating: 90
[14]; [29]
  Plant response rating (0 to 100 scale), Foxtail, Giant: 90
[15]; [28]
  Goosegrass plant response rating: 90
[15]; [29]
  Plant response rating (0 to 100 scale), Goosegrass: 90
Kochia (Bassia scoparia) [16]; [28]
  Kochia plant response rating: 60
Kochia (Bassia scoparia) [16]; [29]
  Plant response rating (0 to 100 scale), Kochia: 90
[17]; [28]
  Oat, Wild plant response rating: 20
[17]; [29]
  Plant response rating (0 to 100 scale), Oat, Wild: 80
[18]; 31 g ai/ha Postemergence
  Pigweed, Palmer plant response rating: 60
[18]; 125 g ai/ha Postemergence
  Pigweed, Palmer plant response rating: 90
[19]; 31 g ai/ha Postemergence
  Ragweed plant response rating: 60
[19]; 125 g ai/ha Postemergence
  Ragweed plant response rating: 80
[20]; 31 g ai/ha Postemergence
  Ryegrass, Italian plant response rating: 70
[20]; 125 g ai/ha Postemergence
  Ryegrass, Italian plant response rating: 100
Soybean (Glycine max) [21]; 31 g ai/ha Postemergence
  Soybean plant response rating: 60
Soybean (Glycine max) [21]; 125 g ai/ha Postemergence
  Soybean plant response rating: 100
[22]; 31 g ai/ha Postemergence
  Wheat plant response rating: 70
[22]; 125 g ai/ha Postemergence
  Wheat plant response rating: 70
[23]; [28]
  Galium plant response rating: 80
[23]; [29]
  Plant response rating (0 to 100 scale), Galium: 100
[24]
  Plant response rating, Barnyardgrass: 95
[25]
  Plant response rating, Ducksalad: 45
Rice (Oryza sativa)
  Plant response rating, Rice: 85
[26]
  Plant response rating, Sedge, Umbrella: 95
[27]
  Plant response rating (0 to 100 scale), Blackgrass: 70
